The subject of assay [1] is migraines; pain during menstruation. The experiment in a line: Case 2:  four with migraines and menstrual pain. The assay is classed as in vivo, person.
The subject of assay [2] is depressions, lethargy and physical feebleness; blood pressure. Briefly: Case 6:  two. The assay is classed as in vivo, person. An excerpt: Both they themself and their family noticed these improvements.
In assay [3] the test system is depressions, lethargy and physical feebleness. Briefly: Case 4: postmenopausal person seven. The assay is classed as in vivo. Conditions: daily dose of 1 to 4 g. An excerpt: The improvements were also noticed by their family.
Assay [4] relates to PMS. The experiment in a line: Case 7:  six with PMS. The class given is in vivo, person. The following applies: average daily dose of 5 g.

For `CN(CC(=O)O)C(=N)N.O` [creatine monohydrate], in assay [1] (daily dose of 1.5 g, even under extreme conditions), the “migraine attacks provoked by heat or bodily or mental exertion” value is given as “able to prevent the attacks”. In assay [2] (combined with an antihypertensive agent, previously severely hypertonic (sys up to 270)), the blood pressure entry is “returned to normal”. For the same compound, in assay [2] (daily dose of 1 to 5 g), the “motivation (lethargy)” value is “unexpected new motivation”, the “spirits (depressions)” value is reported as “rise in spirits” and the “strength (physical feebleness)” value is listed as “increase in strength”.
Take creatine ascorbate: in assay [3], the “motivation (lethargy)” value was “unexpectedly motivated”, the “spirits (depressions)” value was “rise in spirits” and the “strength (physical feebleness)” value is listed as “gained in strength”.
As to creatine pyruvate, the pain during menstruation entry in assay [1] (dose not stated) is “able to stop the pain”. In assay [4], the abdominal pain entry is “no longer suffered”; the “physical complaints of PMS” value was “complete relief”; the “tenderness and swelling of the breast” value is “no longer suffered”.

The values above are taken from patent US6503951B2, “Use of creatine and/or creatine derivatives for treating typical disorders in women” (SKW Trostberg Aktiengesellschaft, priority 1999, dated 2003).
